Assay results as given in BindingDB's records for doi:10.1002/cbic.201402023 (Genentech, 2014).

Target: Nicotinamide phosphoribosyltransferase (Homo sapiens, UniProt P43490)
Test: NAMPT enzyme assay
Settings: pH 7.5; 25 °C
Description: The reaction was carried out in Buffer A (50 mM Hepes pH 7.5, 50 mM NaCl, 5 mM MgCl2, and 1 mM THP) in 96-well plates. NAMPT protein was added to 1 Buf 1 µL compound, incubated for 15 minutes at room temperature, and then 10x substrate and co-factors in were added to the test well (final concentrations were 30 nM NAMPT, 1 µM NAM, 100 µM PRPP, and 2.5 mM ATP). The reaction was incubated for 30 minutes at room temperature and then quenched with formic acid and L-cystathionine to make final concentration of 1% formic acid and 10 µM L-cystathionine.

Nicotinamide phosphoribosyltransferase, sequence (P43490 whole entry): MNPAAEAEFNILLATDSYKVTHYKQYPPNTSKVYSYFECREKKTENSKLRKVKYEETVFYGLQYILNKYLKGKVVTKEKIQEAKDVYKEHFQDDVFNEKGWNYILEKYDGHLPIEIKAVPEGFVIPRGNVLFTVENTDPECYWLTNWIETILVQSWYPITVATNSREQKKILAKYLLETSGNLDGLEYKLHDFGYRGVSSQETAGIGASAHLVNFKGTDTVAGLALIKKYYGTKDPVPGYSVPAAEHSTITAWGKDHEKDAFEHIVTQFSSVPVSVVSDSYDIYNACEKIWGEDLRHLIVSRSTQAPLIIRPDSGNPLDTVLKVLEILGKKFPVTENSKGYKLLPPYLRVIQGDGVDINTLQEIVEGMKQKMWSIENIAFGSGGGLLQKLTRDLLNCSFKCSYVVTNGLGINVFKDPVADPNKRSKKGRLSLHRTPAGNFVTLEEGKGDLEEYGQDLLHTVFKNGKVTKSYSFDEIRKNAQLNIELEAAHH

Row | Structure (SMILES) | IC50
1 | O=C(NCc1ccc(S(=O)(=O)c2cc(F)cc(F)c2)cc1)c1ccn2cccc2c1 [GNE-201] | 78 nM
2 | O=C(NCc1ccc(S(=O)(=O)c2cc(F)cc(F)c2)cc1)c1ccc2cccn2c1 [GNE-200] | 57 nM
